Source: patent US7462598B2, “Antimicrobial theta defensins, analogs thereof, and methods of use” (priority 2002, dated 2008)
Bridge positions count the residues as written; N and C are the ends. Peptide text beside a SMILES is read from it.

Legend:
S. aureus 502a = assay: Cell-suspension microbicidal assay (MMC); assay type: cell-based, Staphylococcus aureus; conditions: lowest concentration that reduced cell viability by 99.9%; 10 mM PIPES, 5 mM glucose, pH 7.4; 2 h 37° C.
Method in brief: (§1)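 Log-phase microbes (2×10^6 CFU/ml) exposed to two-fold peptide dilutions (0.062-8.0 μg/ml) in 10 mM PIPES, 5 mM glucose, pH 7.4, 2 h at 37 °C, then diluted 1:10 to 1:10^6 in broth and grown 24-48 h. MMC is the lowest concentration giving ≥99.9% killing (no pellet at 1:10^3).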

E. coli ML35 [1] = assay: Cell-suspension microbicidal assay (MMC); assay type: cell-based, Escherichia coli; conditions: lowest concentration that reduced cell viability by 99.9%; 10 mM PIPES, 5 mM glucose, pH 7.4; 2 h 37° C.
Method in brief: as §1

C. albicans 16820 = assay: Cell-suspension microbicidal assay (MMC); assay type: cell-based, Candida albicans; conditions: lowest concentration that reduced cell viability by 99.9%; 10 mM PIPES, 5 mM glucose, pH 7.4; 2 h 37° C.
Method in brief: as §1

[2] = system: S. aureus 502a, E. coli ML35, and C. albicans 16820; assay: Cell-suspension microbicidal assay, statements across the test organisms (lowest MMC, overall ranges); assay type: cell-based
Method in brief: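 Log-phase organisms (2×10^6 CFU/ml) were exposed for 2 h at 37° C. to peptide (0.062–8.0 μg/ml final) in 10 mM PIPES/5 mM glucose, pH 7.4, then serially diluted in broth and grown 24–48 h. MMC was defined as ≥99.9% killing (no pellet at 1:10^3). SI was calculated as concentration giving 3% hemolysis in PBS divided by lowest MMC.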

E. coli ML35 [3] = assay: Membrane permeabilization assay (ONPG hydrolysis); assay type: cell-based, Escherichia coli; conditions: rates at 1 μg/ml concentration of each peptide
Method in brief: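 ONPG hydrolysis by log-phase E. coli ML35 (1×10^6 CFU/ml) in 10 mM PIPES pH 7.4 with 3 mM ONPG, peptides at 0-8.0 μg/ml final; A405 followed for 60 min. Control: 0-4 μg/ml peptide incubated with recombinant β-galactosidase and 3 mM ONPG.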

[4] = target: T1, recombinant β-galactosidase (Escherichia coli, UniProt P00722); assay: Inhibition of purified β-galactosidase (ONPG hydrolysis); assay type: biochemical; conditions: 4 μg/ml, the highest peptide concentration tested; 10 nM enzyme
T1 construct: gift from Dr. Donald P. Satchell, University of California, Irvine, Department of Pathology
Experimental: Dose-dependent rates of ONPG hydrolysis were determined using 10 nM of purified β-galactosidase.
The effect of each peptide on β-galactosidase-dependent ONPG hydrolysis was determined by incubating 0-4 μg/ml of each peptide with recombinant β-galactosidase (a gift from Dr. Donald P. Satchell, University of California, Irvine, Department of Pathology) and 3 mM ONPG as described above.

E. coli ML35 [5] = assay: Agar diffusion assay; assay type: cell-based, Escherichia coli; conditions: diameter of clearing, FIG. 3
Experimental: (§2) Briefly, 10-μl wells were bored in a 9-cm^2 plate of agarose, buffered with 10 mM 1,4-piperazinebis(ethanesulfonic acid) (PIPES), pH 7.4, containing 5 mM glucose, and seeded with 1×10^6 mid-log phase cells. Five-μl aliquots of peptides, dissolved in 0.01% HOAc at 10-300 μg/ml, were added to each well. After incubation at 37° C. for 2 h, the seeded agar was overlaid with molten agarose containing 6% trypticase soy broth (for bacteria) or Sabouraud dextrose broth (for fungi). Plates were incubated at 37° C. for 18-24 h, and antimicrobial activity was determined by measuring the diameter of clearing around each well.

E. coli ML35 [6] = assay: Microbicidal assay by colony counting (Example I); assay type: cell-based, Escherichia coli
Experimental: The limit of detection (1 colony per plate) was equal to 1×10^3 CFU/ml in the incubation mixture.
Microbicidal activity of each peptide was determined by incubating 2×10^6 CFU/ml with peptides (0.5-12 μg/ml) in 50 μl of 10 mM PIPES buffer containing 5 mM glucose, pH 7.4. […] After 37° C. incubation for 18-48 h, colonies were counted and cell survival was expressed as CFU/ml.

[7] = system: S. aureus 502a, E. coli ML35, C. albicans 16820, and C. neoformans 271a; assay: Agar diffusion assay, statements across the test organisms; assay type: cell-based; conditions: against E. coli, FIG. 18A-D
Experimental: as §2

T1 sequence (P00722 2-1024): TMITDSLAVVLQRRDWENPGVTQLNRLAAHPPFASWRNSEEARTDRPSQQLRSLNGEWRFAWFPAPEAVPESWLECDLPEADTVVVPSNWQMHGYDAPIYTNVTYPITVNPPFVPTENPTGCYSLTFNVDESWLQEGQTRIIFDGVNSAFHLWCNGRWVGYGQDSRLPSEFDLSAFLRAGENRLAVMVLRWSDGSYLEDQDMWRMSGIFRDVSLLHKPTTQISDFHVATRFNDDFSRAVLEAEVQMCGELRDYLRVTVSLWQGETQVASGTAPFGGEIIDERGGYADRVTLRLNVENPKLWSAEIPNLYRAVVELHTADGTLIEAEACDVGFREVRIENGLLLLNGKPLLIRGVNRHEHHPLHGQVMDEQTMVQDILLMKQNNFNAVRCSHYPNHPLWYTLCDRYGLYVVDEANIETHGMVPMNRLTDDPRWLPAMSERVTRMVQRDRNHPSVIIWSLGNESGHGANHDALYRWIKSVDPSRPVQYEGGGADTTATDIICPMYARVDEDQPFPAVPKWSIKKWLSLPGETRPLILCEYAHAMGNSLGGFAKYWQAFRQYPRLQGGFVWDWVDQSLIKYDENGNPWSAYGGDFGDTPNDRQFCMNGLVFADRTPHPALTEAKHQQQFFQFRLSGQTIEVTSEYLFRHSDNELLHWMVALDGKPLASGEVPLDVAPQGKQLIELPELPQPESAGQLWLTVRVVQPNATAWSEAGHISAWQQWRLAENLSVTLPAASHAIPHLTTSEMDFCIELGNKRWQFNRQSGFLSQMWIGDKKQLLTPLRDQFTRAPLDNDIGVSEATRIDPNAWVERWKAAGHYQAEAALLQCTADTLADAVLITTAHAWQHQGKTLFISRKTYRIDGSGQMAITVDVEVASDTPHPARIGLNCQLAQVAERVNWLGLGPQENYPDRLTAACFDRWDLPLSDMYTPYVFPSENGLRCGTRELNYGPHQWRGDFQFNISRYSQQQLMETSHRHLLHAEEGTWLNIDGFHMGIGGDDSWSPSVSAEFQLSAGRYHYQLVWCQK

| SMILES | MMC, S. aureus (S. aureus 502a) [µg/mL] | MMC, E. coli (E. coli ML35 [1]) [µg/mL] | MMC, C. albicans (C. albicans 16820) [µg/mL] | MMC, range over the test organisms ([2]; S. aureus, E. coli and C. albicans, 10 mM PIPES, 5 mM glucose, pH 7.4) [µg/mL] | M ([2]; peptide concentration that kill 99.9% of either S. aureus, E. coli, or C. albicans, lowest MMC value) [µg/mL] | ONPG hydrolysis (E. coli ML35 [3]) | reduction of ONPG hydrolysis by purified β-galactosidase [4] [%] | fold less active than RTD-1 and RTD-2 against E. coli (E. coli ML35 [5]) | amount of peptide required to achieve the microbicidal effect of RTD-1 and 2 (E. coli ML35 [6]; killing of E. coli, 2 h) | activity against E. coli compared with RTD-1 and -2 (E. coli ML35 [6]; longer incubation times (4 or 6 h)) | antimicrobial activity compared with synthetic / native RTD-1 [7] |
| --- | --- | --- | --- | --- | --- | --- | --- | --- | --- | --- | --- |
| CC(C)C[C@@H]1NC(=O)[C@@H]2CSSC[C@H](NC(=O)[C@H](CCCNC(=N)N)NC(=O)[C@@H]3CSSC[C@H](NC1=O)C(=O)N[C@@H](CCCNC(=N)N)C(=O)N[C@@H](CCCNC(=N)N)C(=O)NCC(=O)N[C@@H](C(C)C)C(=O)N3)C(=O)N[C@@H](CC(C)C)C(=O)N[C@H]1CSSC[C@H](NC(=O)[C@H](C(C)C)NC(=O)CNC(=O)[C@H](CCCNC(=N)N)NC(=O)[C@H](CCCNC(=N)N)NC1=O)C(=O)N[C@@H](CCCNC(=N)N)C(=O)N2 [RTD-3] (cyclo(CLCRRGVCRCLCRRGVCR); disulfide 1-10, 3-8, 12-17) | 1.0 | 2.0 | 1.0 | 1 to 2 | 1 | 9.2 (A405/sec) · 10^−5 | 50 | 2- to 3 fold | approximately twice as much of the peptide was required | nearly equivalent | – |
| CC[C@H](C)[C@@H]1NC(=O)[C@@H]2CSSC[C@H](NC(=O)[C@H](CCCNC(=N)N)NC(=O)[C@@H]3CSSC[C@H](NC1=O)C(=O)N[C@@H]([C@@H](C)O)C(=O)N[C@@H](CCCNC(=N)N)C(=O)NCC(=O)N[C@@H](Cc1ccccc1)C(=O)N3)C(=O)N[C@@H](CC(C)C)C(=O)N[C@H]1CSSC[C@H](NC(=O)[C@H](C(C)C)NC(=O)CNC(=O)[C@H](CCCNC(=N)N)NC(=O)[C@H](CCCNC(=N)N)NC1=O)C(=O)N[C@@H](CCCNC(=N)N)C(=O)N2 [recombinant RTD-1] (cyclo(GFCRCLCRRGVCRCICTR); disulfide 3-16, 5-14, 7-12) | – | – | – | – | – | – | – | – | – | – | virtually indistinguishable |
